Source: paper PMC4189421, “Induction of Oligodendrocyte Differentiation and In Vitro Myelination by Inhibition of Rho-Associated Kinase” (ASN NEURO, 2014)

How the values were obtained:
[1] = tested on: mouse neurosphere-derived oligodendrocyte precursor cells (Nph-OPCs); experiment: Morphology-based OPC differentiation assay (branches, outgrowth; high-content imaging); assay type: cell-based; conditions: mNph-OPC, 72 hr treatment, dose-response
Method: Neurospheres (Nph) were prepared from embryos at 14.5 days of gestation obtained from timed pregnant females of C57/Bl6 mice, as previously described ([Kornblum, Yanni, Easterday, & Seroogy, 2000]; [Pedraza, Monk, Lei, Hao, & Macklin, 2008]). In brief, after separation of meninges and cerebellum, cerebrum tissue was mechanically triturated with a 1-ml micropipette until total tissue dissociation was achieved, filtered through a 70 -µm cell strainer (Fisher Scientific, Pittsburgh, PA), and plated in 25-cm^2 plastic culture flasks (2 brains/flask). Nph proliferation media (NPM) consisted of Dulbecco’s Modified Eagle Medium (DMEM)/F12, B27 neuronal supplement (Gibco, Baltimore, MD) and 10 ng/ml […] (EGF; Sigma, St. Louis, MO). After 48 to 72 hr, floating Nphs were passaged at a 1 : 1 ratio into 75-cm^2 culture flasks. After a further 48 to 72 hr, they were passaged into 150-cm^2 flasks. Subsequent passages were performed every 3 to 4 days at a ratio of 1 : 2 or 1 : 3 in the same media, and Nph were used to generate OPCs for no more than 12 passages.
OPCs were generated by chemical disaggregation of Nph with a mouse neural progenitor dissociation kit following the manufacturer instructions (NeuroCult, StemCell Technologies, AB, Canada). The single-cell suspension was then filtered through a 40 -µm cell strainer and plated on poly-D-lysine (PDL)-coated plates. […]
To determine the effects of ROCK inhibition on OPCs, we developed a high-content image morphological analysis of OPC differentiation using mouse embryonic neural progenitor-derived OPCs (Nph-OPCs). […] Four images per well were analyzed using a neurite outgrowth module (Molecular Devices, Sunnyvale, CA). We quantified the number of branches and total outgrowth per cell (Figure 1). […] Additionally, nuclear staining by Hoechst allowed the accurate association of branches and processes to their corresponding cell bodies and permitted quantification of total cell numbers in each well.

mouse Nph-OPCs = experiment: Cell proliferation as number of Hoechst-labeled nuclei; assay type: cell-based; conditions: 1 µM; n = 3 in triplicate wells; DMSO: 522 ± 126
Text: To determine the effects of ROCK inhibition on OPCs, we developed a high-content image morphological analysis of OPC differentiation using mouse embryonic neural progenitor-derived OPCs (Nph-OPCs). Neural progenitors grow as nonadherent spheroids known as neurospheres (Nph; [Chojnacki & Weiss, 2008]; [Tropepe et al., 1999]), which are considered to be a mixed population of neural stem cells and progenitors of the CNS ([Rao, 1999]; [Zhou & Chiang, 1998]). These cells have been previously used in multiple published studies for the generation of high-yield, high-purity cultures of OPCs from rodents ([Calaora et al., 2001]; [[…] al., 1997]; [Pedraza et al., 2008]). After 24 hr of plating on PDL-coated tissue culture plastic, Nph-OPCs were treated as indicated with differentiation stimuli and further incubated for 72 hr. […] Four images per well were analyzed using a neurite outgrowth module (Molecular Devices, Sunnyvale, CA). We quantified the number of branches and total outgrowth per cell (Figure 1). […] Additionally, nuclear staining by Hoechst allowed the accurate association of branches and processes to their corresponding cell bodies and permitted quantification of total cell numbers in each well. […]

rat mixed glial OPCs = experiment: Myelin protein expression in rat mixed glia-derived OPCs (qPCR, MBP ELISA); assay type: cell-based
Method: Rat postnatal OPCs were obtained as described elsewhere according to the original procedure of [McCarthy and […] (1980)]. In brief, postnatal Day 1 rat pups were sacrificed, and cerebral cortices dissected and mechanically dissociated in medium composed of DMEM, 10% heat inactivated fetal bovine serum, and 5 μg/ml penicillin/streptomycin. Dissociated cells were plated and maintained in 75-cm^2 culture flasks for 10 days, replenishing with fresh media at Days 3 and 7. At Day 10, the flasks were shaken on a heated (37°C) shaker for 1 hr at 110 rpm to separate loosely attached microglial cells. The medium was replenished, and the cells incubated for the remainder of the day. To dislodge OPCs from the astrocyte monolayer, flasks were shaken overnight (210 rpm, 37°C). […] Cells were then plated on PDL-coated tissue culture plastic and treated with test compounds. […] The results are presented as specific mRNA expression relative to either β-actin or β-tubulin, used as internal controls as indicated. OPCs isolated from rat mixed glial cultures are known to mature readily in the absence of mitogens achieving a premyelinating OL stage as determined by the expression of the cell surface sulfatide O4, and the myelin proteins MBP and PLP among others ([Armstrong, 1998]; [Barbarese & Pfeiffer, 1981]; [[…], 1999]; [Jung-[…], Schumacher, Robel, & Baulieu, 1996]; [Konola, Tyler, Yamamura, & Lees, 1991]). They also display marked morphological changes, progressing from bipolar to multibranched cells generating membranous structures, and probably represent a later developmental stage than Nph-OPC. In rat mixed glial OPCs, we measured myelin protein expression at the RNA level by qPCR and MBP production by ELISA (MBL International, Woburn, MA).

[2] = tested on: MYPT1 phosphorylation in mNph-OPC; experiment: MYPT1 phosphorylation (sandwich ELISA, western blot) as ROCK target engagement; conditions: 100 µM, 4-hr mNph-OPC treatment
Method: Tris-glycine acrylamide-bysacrylamide gradient gel electrophoresis was performed as follows: After washing the cells with ice-cold PBS, protein lysates were made by adding 50 µl of PhosphoSafe extraction reagent (EMD Millipore) supplemented with antiprotease cocktail (cOmplete; Roche, Branford, CT) onto each 100-mm^2 cell culture plate. After detaching the cells with the help of a cell scraper and disrupting cell membranes by sonication, the protein extracts were centrifuged (10,000 g, 10 min, 4℃) and the supernatants separated. Protein content was measured by the BCA protein determination method (Biorad, Hercules, CA), and 30 µg of total protein was mixed with SDS sample buffer (Laemmli) supplemented with 1% β-mercaptoethanol. After heating the samples to 70℃ for 10 min, they were loaded onto 4% to 20% acryl-bysacrylamide gradient gels, and electrophoresis was carried out at 120 volts with constant amperage.
Resolved proteins were then transferred onto nitrocellulose membranes using the iBlot methodology and device (Life technologies). […] Secondary detection was performed using Li-Cor IRDye secondary anti-mouse and anti-rabbit antibodies, and near-infrared signal was detected by Li-Cor’s Odyssey imaging system.
We assessed MYPT1 phosphorylation in Nph-OPCs treated for 4 hr with ROCK inhibitors in a dose-response experiment and using a sandwich ELISA as a measuring method (MBL International).

ROCKI = target: T1, ROCKI (Homo sapiens, UniProt Q13464); conditions: read-out: Activity, IC50 ROCKI, Table 1, ref Goodman et al., 2007, Nichols et al., 2009, heading: Activity; cited from earlier work
T1 construct: purchased EMD Millipore

ROCKII = target: T2, ROCKII (Homo sapiens, UniProt O75116); conditions: read-out: Activity, IC50 ROCKII, Table 1, ref Goodman et al., 2007, Nichols et al., 2009, heading: Activity; cited from earlier work
T2 construct: purchased EMD Millipore
T2 sequence (O75116 whole entry, species assumed): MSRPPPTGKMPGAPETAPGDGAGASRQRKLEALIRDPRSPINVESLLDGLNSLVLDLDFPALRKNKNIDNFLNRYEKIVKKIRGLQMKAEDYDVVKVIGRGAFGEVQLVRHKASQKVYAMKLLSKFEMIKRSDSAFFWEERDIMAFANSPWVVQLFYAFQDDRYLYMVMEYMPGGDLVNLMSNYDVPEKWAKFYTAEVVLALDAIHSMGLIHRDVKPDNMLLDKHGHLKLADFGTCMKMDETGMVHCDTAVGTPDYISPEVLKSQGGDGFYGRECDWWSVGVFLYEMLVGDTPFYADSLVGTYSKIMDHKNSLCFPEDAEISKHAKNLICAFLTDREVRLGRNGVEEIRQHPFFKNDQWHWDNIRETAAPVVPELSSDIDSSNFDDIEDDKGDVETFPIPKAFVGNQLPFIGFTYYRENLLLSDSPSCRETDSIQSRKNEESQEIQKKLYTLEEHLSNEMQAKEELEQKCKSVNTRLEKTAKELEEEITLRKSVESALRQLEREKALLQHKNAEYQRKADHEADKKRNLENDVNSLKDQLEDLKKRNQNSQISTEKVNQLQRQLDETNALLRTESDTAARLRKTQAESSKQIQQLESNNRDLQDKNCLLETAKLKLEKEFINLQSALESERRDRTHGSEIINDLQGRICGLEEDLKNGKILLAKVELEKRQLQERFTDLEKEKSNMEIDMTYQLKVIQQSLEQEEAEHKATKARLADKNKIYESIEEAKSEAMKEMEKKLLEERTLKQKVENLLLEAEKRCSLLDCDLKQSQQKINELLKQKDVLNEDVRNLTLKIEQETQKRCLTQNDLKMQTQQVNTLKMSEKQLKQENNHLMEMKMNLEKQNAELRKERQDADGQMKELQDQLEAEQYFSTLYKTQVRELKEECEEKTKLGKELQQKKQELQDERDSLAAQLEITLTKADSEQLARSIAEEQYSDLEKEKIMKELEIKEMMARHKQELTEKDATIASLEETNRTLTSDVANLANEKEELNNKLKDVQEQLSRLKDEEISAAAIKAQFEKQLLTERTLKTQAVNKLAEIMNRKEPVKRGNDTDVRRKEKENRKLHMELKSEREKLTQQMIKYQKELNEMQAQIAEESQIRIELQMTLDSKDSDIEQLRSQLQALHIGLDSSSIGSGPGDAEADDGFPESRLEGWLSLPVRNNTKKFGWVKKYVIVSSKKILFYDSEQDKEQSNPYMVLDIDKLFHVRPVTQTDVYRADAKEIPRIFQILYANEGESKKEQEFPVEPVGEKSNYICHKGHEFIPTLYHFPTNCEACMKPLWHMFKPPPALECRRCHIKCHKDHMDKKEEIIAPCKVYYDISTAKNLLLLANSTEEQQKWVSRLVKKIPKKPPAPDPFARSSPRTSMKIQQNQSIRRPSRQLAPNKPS

T1 sequence (Q13464 whole entry, species assumed): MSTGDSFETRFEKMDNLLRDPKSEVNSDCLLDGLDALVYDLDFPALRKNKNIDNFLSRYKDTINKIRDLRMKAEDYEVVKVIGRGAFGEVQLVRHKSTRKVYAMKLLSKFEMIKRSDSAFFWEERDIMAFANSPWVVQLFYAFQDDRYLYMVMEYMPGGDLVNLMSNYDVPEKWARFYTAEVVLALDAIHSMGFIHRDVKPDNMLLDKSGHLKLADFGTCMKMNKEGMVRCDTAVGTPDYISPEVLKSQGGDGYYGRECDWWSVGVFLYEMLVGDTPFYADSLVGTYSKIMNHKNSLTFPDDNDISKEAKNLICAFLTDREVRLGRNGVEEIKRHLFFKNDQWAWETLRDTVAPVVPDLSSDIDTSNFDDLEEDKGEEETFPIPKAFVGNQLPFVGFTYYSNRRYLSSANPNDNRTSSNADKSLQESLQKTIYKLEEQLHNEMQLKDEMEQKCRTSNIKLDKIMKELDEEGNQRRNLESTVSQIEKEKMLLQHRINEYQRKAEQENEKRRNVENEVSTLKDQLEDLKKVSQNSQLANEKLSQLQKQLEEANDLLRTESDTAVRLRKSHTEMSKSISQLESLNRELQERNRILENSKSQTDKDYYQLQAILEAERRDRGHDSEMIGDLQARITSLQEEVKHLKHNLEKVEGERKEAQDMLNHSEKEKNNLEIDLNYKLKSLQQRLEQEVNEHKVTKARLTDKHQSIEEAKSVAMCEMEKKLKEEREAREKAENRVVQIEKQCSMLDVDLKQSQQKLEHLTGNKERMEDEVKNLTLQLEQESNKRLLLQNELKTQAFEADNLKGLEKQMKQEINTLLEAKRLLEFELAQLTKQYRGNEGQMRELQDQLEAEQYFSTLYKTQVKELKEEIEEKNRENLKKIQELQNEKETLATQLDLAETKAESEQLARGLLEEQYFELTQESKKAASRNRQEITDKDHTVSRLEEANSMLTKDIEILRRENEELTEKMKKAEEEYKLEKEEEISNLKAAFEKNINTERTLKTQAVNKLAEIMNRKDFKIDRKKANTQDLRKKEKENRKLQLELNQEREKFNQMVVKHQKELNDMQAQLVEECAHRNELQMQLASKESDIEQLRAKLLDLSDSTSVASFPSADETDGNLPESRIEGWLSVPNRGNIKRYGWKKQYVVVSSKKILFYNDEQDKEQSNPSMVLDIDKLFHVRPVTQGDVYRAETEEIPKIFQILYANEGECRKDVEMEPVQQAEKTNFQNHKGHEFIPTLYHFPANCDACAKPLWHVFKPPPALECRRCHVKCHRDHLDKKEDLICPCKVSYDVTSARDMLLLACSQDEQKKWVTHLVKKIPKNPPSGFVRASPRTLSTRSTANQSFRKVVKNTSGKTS

Compound	OPC differentiation effect (processes and branches) [1]	Number of Hoechst-labeled nuclei (mouse Nph-OPCs) [cells/well]	Expression of MBP, PLP, and MOG mRNAs (qPCR) (rat mixed glial OPCs; 3 days maturation +4 days treatment, concentrations as low as 0.1 µM)	MBP at the protein level (ELISA) (rat mixed glial OPCs; treatments at 24 hr and 72 hr after plating)	Decrease of MYPT1 phosphorylation (ELISA) [2] [%]	IC50 ([1]; Mus musculus, Oligodendrocyte precursor cell, read-out: IC50, generation of branches in OPC differentiation assay) [nM]	IC50 (ROCKI) [nM]	IC50 (ROCKII) [nM]
O=S(=O)(c1cccc2cnccc12)N1CCCNCC1 [Fasudil]	minor differentiation effect	598 ± 21	significant increase	increased expression	60			
CC1=C(C(=O)Nc2cc3cn[nH]c3cc2F)C(c2ccc(C(F)(F)F)cc2)CC(=O)N1 (centres unmarked) [GSK 429286, 4-[4-(trifluoromethyl)phenyl]-N-(6-fluoro-1H-indazol-5-yl)-2-methyl-6-oxo-1,4,5,6-tetrahydro-3-pyridinecarboxamide]						2300	14	48
